{"source": "patent US20080188469A1", "about": "“VACCINATION” (Glaxo Group Limited, priority 2002, published 2008)", "tested_on": "antigen specific cytokine producing cells in splenocytes", "experiment": "Imiquimod given with particle-mediated DNA vaccination (pVAC1.ova.cyt) of mice; cytokine producing splenocytes by ELISPOT", "format": "in vivo, C57B1/6 mice", "conditions": "imiquimod 30 mg/kg, single subcutaneous injection at the immunisation site, immediately following vaccination", "method": "To examine whether the timing of imiquimod administration could affect the numbers of antigen specific cytokine producing cells in splenocytes pVAC1.ova.cyt (prepared according to example 1) was administered by particle mediated gene transfer (0.05 μg/cartridge) into the skin of mice.\nIf given, immediately following vaccination imiquimod (prepared as a suspension in vehicle which comprised 0.3% (w/v) methylcellulose and 0.1% (v/v) Tween in sterile water) was administered by a single subcutaneous injection (0.05 ml/10 g body weight formulated to provide a dose of 30 mg/kg)) at the immunisation site. Plasmid and imiquimod controls were empty vector (pVAC1) and vehicle, respectively.\nAll mice received pVAC1. ova.cyt or empty vehicle pVAC1 at day 0 and week 4. One group of mice received imiquimod at day 0 only (Im prime), a second group of mice received imiquimod at week 4 only (Im boost) and another group received imiquimod at day 0 and week 4 (Im pr+boost).\nAt day 12 spl enocytes were collected and IFN-γ and IL-2 producing cells were measured by ELISPOT."}
{"smiles": "CC(C)Cn1cnc2c(N)nc3ccccc3c21", "note": "[Imiquimod, imiquimod]", "values": [{"measurement": "Magnitude of the cytotoxic T cell response to a nucleic acid vaccine", "result": "Increases the Magnitude of the Cytotoxic T Cell Response"}]}
